These results are taken from paper PMC7576608, “Mechanisms of telomerase inhibition by oxidized and therapeutic dNTPs” (Nature Communications, 2020).

SMILES strings stand for the structures.

Experiment [1] deals with T1, telomerase (Homo sapiens, UniProt O14746). Description: Telomerase extension after insertion of modified dNTP (percent of product terminated at each template position). More on the design: made in house; anti-FLAG immunopurification, eluted with 3xFLAG peptide. The class given is biochemical. The following applies: for Percent of Total Product: 50 μM each dATP, dTTP and dGTP or 6-thio-dGTP, Mean. Here is the method: Direct telomerase assays were conducted with 5 nM ^32P-end labeled primer a and d Primer 3 (AGGGTT)3, b Primer 1 (TTAGGG)3, or c Primer 2 […]. […] Products were separated on denaturing gels. Letters on the y-axis of the graph indicate the template base; P indicates unextended 18-mer primer. Graphs represent percent of product terminated at each template position as a function of total products. Images are representative of, and data are the mean ± s.d. from, three independent experiments. Source data are provided as a Source Date file.
(§1) The reactions were started by the addition of 3 μl of immunopurified telomerase eluent, incubated at 37 °C for 1 h, then terminated with 2 μl of […] and heat inactivated at 65 °C for 20 min. An equal volume of loading buffer (94% formamide, 0.1× TBE, 0.1% bromophenol blue, 0.1% xylene cyanol) was added to the reaction eluent. The samples were heat denatured for 10 min at 100 °C and loaded onto a 14% denaturing acrylamide gel (7 M urea, 1× TBE) and electrophoresed for 90 min at constant 38 W. Samples were imaged using a Typhoon phosphorimager (GE Healthcare). Percent primer extension was calculated with ImageQuant TL 8.2 by measuring the intensity of each product band and dividing by the total radioactivity in the lane or total products, as indicated in the figure legends.
Target sequence in this assay (O14746 whole entry): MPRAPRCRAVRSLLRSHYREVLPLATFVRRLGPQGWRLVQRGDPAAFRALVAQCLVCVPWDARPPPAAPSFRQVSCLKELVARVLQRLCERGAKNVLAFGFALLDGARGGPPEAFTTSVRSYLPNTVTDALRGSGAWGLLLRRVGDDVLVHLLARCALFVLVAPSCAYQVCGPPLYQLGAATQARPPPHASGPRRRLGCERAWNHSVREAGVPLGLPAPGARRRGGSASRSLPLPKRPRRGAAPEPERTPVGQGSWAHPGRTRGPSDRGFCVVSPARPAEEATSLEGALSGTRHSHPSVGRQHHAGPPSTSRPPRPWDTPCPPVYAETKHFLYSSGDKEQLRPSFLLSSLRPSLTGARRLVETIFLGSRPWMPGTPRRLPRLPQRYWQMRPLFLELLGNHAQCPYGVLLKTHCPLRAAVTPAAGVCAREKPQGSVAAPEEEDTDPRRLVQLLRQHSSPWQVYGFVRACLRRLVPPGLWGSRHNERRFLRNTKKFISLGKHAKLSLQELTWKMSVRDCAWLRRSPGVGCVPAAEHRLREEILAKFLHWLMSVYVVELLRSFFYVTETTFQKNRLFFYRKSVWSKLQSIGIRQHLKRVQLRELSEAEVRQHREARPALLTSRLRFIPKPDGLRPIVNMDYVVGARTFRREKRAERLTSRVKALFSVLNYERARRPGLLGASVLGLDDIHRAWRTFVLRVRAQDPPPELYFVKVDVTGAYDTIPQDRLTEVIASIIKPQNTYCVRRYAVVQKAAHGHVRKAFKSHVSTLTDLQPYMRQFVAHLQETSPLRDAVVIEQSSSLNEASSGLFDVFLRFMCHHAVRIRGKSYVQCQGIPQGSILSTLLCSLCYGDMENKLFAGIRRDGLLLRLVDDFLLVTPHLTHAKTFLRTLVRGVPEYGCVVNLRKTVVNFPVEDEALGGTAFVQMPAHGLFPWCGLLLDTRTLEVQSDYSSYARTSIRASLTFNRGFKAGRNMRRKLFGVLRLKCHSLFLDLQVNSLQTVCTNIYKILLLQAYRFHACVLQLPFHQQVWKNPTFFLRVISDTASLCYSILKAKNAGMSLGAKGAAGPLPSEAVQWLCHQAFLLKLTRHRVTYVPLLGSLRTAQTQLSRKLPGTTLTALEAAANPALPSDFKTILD

Experiment [2] addresses T1, telomerase. In words: Direct telomerase assay in the absence or presence of POT1-TPP1 (processivity R1/2). In kind it is biochemical. Also noted: made in house; POT1: baculovirus-infected Sf9; TPP1-N: E. coli BL21(DE3) pLysS. The following applies: analog substituted for its natural dNTP, other dNTPs at cellular concentration.
From the text: Next we tested whether the telomerase processivity factor POT1–TPP1 modulates modified dNTP inhibition of telomerase. POT1 binds to the telomeric ssDNA overhang, requiring the minimum sequence of 5′-[…]-3′[38]. Inclusion of POT1-binding partner TPP1, increases the binding affinity for telomeric DNA ten-fold compared to POT1 alone. POT1–TPP1 recruits telomerase to telomeres in vivo[39], and greatly increases telomerase repeat processivity. Therefore, we reasoned that POT1–TPP1 may overcome inhibition by the modified dNTPs and enhance telomerase processivity. We conducted telomerase extension reactions with radiolabeled primer in the presence of POT1–TPP1, and used a primer with a single mutation ([…]; underlined G to C mutation)[40] to ensure POT1–TPP1 is positioned at the 5′ portion of the primer (Fig. 5). This provides a homogenous substrate for telomerase extension.
For these reactions, we replaced the natural dNTP with the modified dNTP analog, while the other dNTPs remained at cellular relevant concentrations.
Direct telomerase assays were conducted in the absence or presence of 500 nM POT1 and 500 nM TPP1, as indicated, and 5 nM ^32P-end labeled primer ([…]) designed to position POT1 at the 10 nt primer 5′ end. Reactions contained cellular-concentration dNTPs (lanes 1 and 2), except when the natural dNTP was substituted with the oxidized dNTP a or therapeutic dNTP b analog (lanes 3–8), as indicated. […] Letters on the right indicate template base; P indicates unextended 18-mer primer. c Processivity was calculated on the basis of total products normalized to loading control. Images are representative of, and data are shown as mean ± s.d. from 3 to 5 independent experiments. Source data are provided as a Source Data file.
as §1
The processivity was calculated as described[40],[67]. Repeat processivity from the direct telomerase extension assays was calculated as R1/2 (equivalent to the half-time for decay in an exponential time course), which represents the median length of DNA product formed, expressed in terms of number of telomere repeats. First, the total volume counts for each product band extend by one or more telomere repeats were obtained using Image Quant TL. The volume counts were then normalized by dividing by the number of radiolabeled guanosines incorporated into the extended products based on the number of repeats added, termed corrected volume (corr vol). The “percent left behind” (%LB) was calculated for each product band by summing the counts for that product band and for every product band below (shorter products), divided by the total counts for the lane, and then multiplied by 100. The natural log of (100−%LB) was calculated and then plotted vs. repeat number for each product length. A linear regression line was fit to the data to determine the slope of the line.

For `Nc1nc2c(ncn2C2CC(O)C(COP(=O)(O)OP(=O)(O)OP(=O)(O)O)O2)c(=S)[nH]1` (stereo not shown) [6-thio-dGTP], the “Extension after insertion of the modified dNTP (in words)” value on telomerase [1] (50 μM each dNTP, analog substituted for natural dNTP) was “not a chain terminator”. In addition, the “Percent of Total Product” value at telomerase [1] (Fig 4b, Primer 1 (TTAGGG)3, terminated at rA3) came to 11.46%; on telomerase [1] (Fig 4b, Primer 1, terminated at rA4) it was 5.50%; on telomerase [1] (Fig 4b, Primer 1, terminated at rC1), 37.27%; at telomerase [1] (Fig 4b, Primer 1, terminated at rC2) it was 6.46%; at telomerase [1] (Fig 4b, Primer 1, terminated at rC6) it was 34.87%; at telomerase [1] (Fig 4b, Primer 1, terminated at rU5), 3.92%. The “Percent of Total Product” value at telomerase [1] (Fig 4c, Primer 2, terminated at rA3) is listed as 49.91%; at telomerase [1] (Fig 4c, Primer 2, terminated at rA4), 4.12%; on telomerase [1] (Fig 4c, Primer 2, terminated at rC1), 23.36%; at telomerase [1] (Fig 4c, Primer 2, terminated at rC2), 22.82%; at telomerase [1] (Fig 4c, Primer 2, terminated at rC6), 8.70%; on telomerase [1] (Fig 4c, Primer 2, terminated at rU5), 0.81%. For the same compound, the “Percent of Total Product” value is given as 4.61% at telomerase [1] (Fig 4d, Primer 3 (AGGGTT)3, terminated at rU5); 1.16% on telomerase [1] (Fig 4d, Primer 3, terminated at rA3); 49.66% on telomerase [1] (Fig 4d, Primer 3, terminated at rC1); 7.38% on telomerase [1] (Fig 4d, Primer 3, terminated at rC2); 37.00% at telomerase [1] (Fig 4d, Primer 3, terminated at rC6). The “Processivity R 1/2” value is on record as 0.00 at telomerase [2] (500 nM POT1 and 500 nM TPP1, Mean); 0.00 on telomerase [2] (500 nM POT1 and 500 nM TPP1, n1-n3); 0.00 at telomerase [2] (Control (no POT1-TPP1), Mean); 0.00 on telomerase [2] (Control (no POT1-TPP1), n1-n3).
